In the assay the target is PKM2 (Homo sapiens, UniProt P14618). Description: PKM2 Assay. It is filed as biochemical. To be noted: activation of PKM2 enzyme, LDH-coupled, absorbance at 340 nm; read-out: PKM2_AC50. How it is done: • PKM2 stock enzyme solution was diluted in Reaction Buffer • 2 μL of compound was added into each well first, and then 180 μL of the Reaction Mix was added. • Reaction mixture with compound (without ADP) were incubated for 30 minutes at 4° C. • Plates were re-equilibrated to room temperature prior to adding 20 μL ADP to initiate the reaction. • Reaction progress was measured as changes in absorbance at 340 nm wavelength at room temperature (25° C.) • Reaction Mix: PKM2 (50 ng/well), ADP (0.7 mM), PEP (0.15 mM), NADH (180 μM), LDH (2 units) in Reaction Buffer • Reaction Buffer: 100 mM KCl, 50 mM Tris pH 7.5, 5 mM MgCl2, 1 mM DTT, 0.03% BSA.
Chain of PKM2 (P14618 whole entry): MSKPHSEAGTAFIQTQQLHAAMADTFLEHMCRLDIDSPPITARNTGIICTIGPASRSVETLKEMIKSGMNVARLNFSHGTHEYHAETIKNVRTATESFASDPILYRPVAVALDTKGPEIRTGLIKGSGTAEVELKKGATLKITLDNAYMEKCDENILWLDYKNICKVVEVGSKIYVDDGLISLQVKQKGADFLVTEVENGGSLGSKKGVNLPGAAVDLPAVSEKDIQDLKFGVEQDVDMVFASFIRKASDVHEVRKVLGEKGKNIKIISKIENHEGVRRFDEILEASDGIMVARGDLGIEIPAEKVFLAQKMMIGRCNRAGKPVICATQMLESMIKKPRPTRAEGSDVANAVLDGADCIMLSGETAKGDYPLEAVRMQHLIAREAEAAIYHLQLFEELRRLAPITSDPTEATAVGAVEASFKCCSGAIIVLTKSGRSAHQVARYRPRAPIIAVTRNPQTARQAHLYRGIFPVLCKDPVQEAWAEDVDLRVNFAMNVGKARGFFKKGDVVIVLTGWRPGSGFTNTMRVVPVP
As to `O=S(=O)(Nc1ccc(Oc2ccc(C(F)(F)F)cn2)c(Cl)c1)c1cccn1-c1ncc(C(F)(F)F)cc1Cl`, the AC50 was in the range of 1 to 10 µM.
With `O=S(=O)(Nc1cccc(-c2ccc(C(F)(F)F)cn2)c1)c1cccn1-c1ncc(C(F)(F)F)cc1Cl` the figure was 1 to 10 µM; with `O=S(=O)(NCc1cccnc1)c1cccn1-c1ncc(C(F)(F)F)cc1Cl`, 1 to 10 µM; with `O=S(=O)(Nc1ccc(Cl)cc1)c1cccn1-c1ccnc(Cl)n1`, 0.5 to 1 µM.
As for `N#Cc1cccc(NS(=O)(=O)c2cccn2-c2ncc(C(F)(F)F)cc2Cl)c1`, the figure is 0.1 to 0.5 µM.
With `CCCNS(=O)(=O)c1cccn1-c1ncc(C(F)(F)F)cc1Cl` the figure was 1 to 10 µM; with `O=S(=O)(Nc1cc(Cl)cc(Cl)c1)c1cccn1-c1ncc(C(F)(F)F)cc1Cl`, 1 to 10 µM; with `COc1cc(NS(=O)(=O)c2cccn2-c2ncc(C(F)(F)F)cc2Cl)cc(C(F)(F)F)c1`, 0.5 to 1 µM.
Consider `CN(C)S(=O)(=O)c1cccn1-c1ncc(C(F)(F)F)cc1Cl`, for which the AC50 is > 10 µM.
As for `O=S(=O)(Nc1ccccc1C(F)(F)F)c1cccn1-c1ncc(C(F)(F)F)cc1Cl`, the figure is 1 to 10 µM.
With `CCc1cccc(NS(=O)(=O)c2cccn2-c2ncc(C(F)(F)F)cc2Cl)c1` the figure was 0.5 to 1 µM; with `COC(=O)c1cccc(NS(=O)(=O)c2cccn2-c2ncc(C(F)(F)F)cc2Cl)c1`, 1 to 10 µM; with `COc1cc(NS(=O)(=O)c2cccn2-c2ncc(C(F)(F)F)cc2Cl)cc(OC)c1`, 0.1 to 0.5 µM.
As to `O=S(=O)(Nc1ccc(F)cc1)c1cccn1-c1ccc(C(F)(F)F)cn1`, the AC50 is 1 to 10 µM.
With `COCCNS(=O)(=O)c1cccn1-c1ncc(C(F)(F)F)cc1Cl` the figure was > 10 µM.
For `O=S(=O)(NCc1ccc(Cl)cc1)c1cccn1-c1ncc(C(F)(F)F)cc1Cl`, the AC50 was > 10 µM.
As to `O=S(=O)(Nc1ccc(Cl)cc1)c1cccn1-c1nccc(Cl)n1`, the AC50 lay within 0.5 to 1 µM.
With `O=S(=O)(Oc1ccc(Cl)cc1)c1cccn1-c1ncc(C(F)(F)F)cc1Cl` the figure was 0.5 to 1 µM.
For `O=S(=O)(Nc1cccc(C(F)(F)F)c1)c1cccn1-c1ncc(C(F)(F)F)cc1Cl`, the AC50 fell in the range of 0.1 to 0.5 µM.
With `O=S(=O)(Nc1ccc(Cl)cc1)c1cccn1-c1ncccn1`, the AC50 was in the range of 1 to 10 µM.
With `COc1ccc(NS(=O)(=O)c2cccn2-c2ncc(C(F)(F)F)cc2Cl)cc1` the figure was 0.1 to 0.5 µM; with `N#Cc1cccc(NS(=O)(=O)c2cncn2-c2ncc(C(F)(F)F)cc2Cl)c1`, 1 to 10 µM.
Consider `O=S(=O)(Nc1ccc(F)cc1)c1cncn1-c1ncc(C(F)(F)F)cc1Cl`, for which the AC50 is 1 to 10 µM.
As for `O=S(=O)(Nc1cccc(C(F)(F)F)c1)c1cncn1-c1ncc(C(F)(F)F)cc1Cl`, the figure is 1 to 10 µM; as for `O=S(=O)(Nc1cc(F)cc(F)c1)c1cncn1-c1ncc(C(F)(F)F)cc1Cl`, 0.5 to 1 µM; as for `O=S(=O)(Nc1ccc2ncccc2c1)c1cncn1-c1ncc(C(F)(F)F)cc1Cl`, 1 to 10 µM.
With `COc1ccc(NS(=O)(=O)c2cncn2-c2ncc(C(F)(F)F)cc2Cl)cc1` the figure was 1 to 10 µM; with `Cc1cc(NS(=O)(=O)c2cncn2-c2cnccn2)ccc1F`, 0.1 to 0.5 µM; with `O=S(=O)(Nc1cccc2ccccc12)c1cncn1-c1ncc(C(F)(F)F)cc1Cl`, 0.1 to 0.5 µM.
As for `O=S(=O)(Nc1ccc2c(c1)OCCO2)c1cncn1-c1ncc(C(F)(F)F)cc1Cl`, the figure is 1 to 10 µM; as for `O=S(=O)(Nc1cc(F)c(F)c(F)c1)c1cncn1-c1ncc(C(F)(F)F)cc1Cl`, 1 to 10 µM; as for `O=S(=O)(Nc1cc(F)cc(F)c1)c1cncn1-c1ncccn1`, 1 to 10 µM.
Regarding `O=S(=O)(Nc1cc(C(F)(F)F)cc(C(F)(F)F)c1)c1cncn1-c1ncc(C(F)(F)F)cc1Cl`, the AC50 was > 10 µM.
As for `O=S(=O)(Nc1cc(Cl)cc(Cl)c1)c1cncn1-c1ncc(C(F)(F)F)cc1Cl`, the figure is 1 to 10 µM; as for `O=S(=O)(Nc1ccc2c(c1)OCCO2)c1cncn1-c1ccc(C(F)(F)F)cn1`, > 10 µM.
Turning to `O=S(=O)(Nc1cccc2ncccc12)c1cncn1-c1ncc(C(F)(F)F)cc1Cl`, the AC50 was 1 to 10 µM.
With `COc1ccc(NS(=O)(=O)c2cncn2-c2ccc(C(F)(F)F)cn2)cc1` the figure was 1 to 10 µM; with `O=S(=O)(Nc1ccc(Cl)cc1)c1cncn1-c1ncccn1`, 1 to 10 µM; with `O=S(=O)(Nc1ccc(F)c(Cl)c1)c1cncn1-c1cnccn1`, 0.1 to 0.5 µM.
With `O=S(=O)(Nc1ccc(F)cc1)c1cncn1-c1ccc(C(F)(F)F)cn1` the figure was 1 to 10 µM; with `COc1cc(NS(=O)(=O)c2cncn2-c2ncc(C(F)(F)F)cc2Cl)cc(OC)c1`, 0.5 to 1 µM; with `Cc1cc(C)cc(NS(=O)(=O)c2cncn2-c2ccc(C(F)(F)F)cn2)c1`, 0.1 to 0.5 µM.
As for `CCc1cccc(NS(=O)(=O)c2cncn2-c2ncc(C(F)(F)F)cc2Cl)c1`, the figure is 0.1 to 0.5 µM; as for `COc1ccc(NS(=O)(=O)c2cnn(-c3ncc(C(F)(F)F)cc3Cl)c2)cc1`, 1 to 10 µM; as for `O=S(=O)(Nc1ccc(Cl)cc1)c1cnn(-c2ncc(C(F)(F)F)cc2Cl)c1`, 0.1 to 0.5 µM.
With `Cc1cc(C)cc(S(=O)(=O)Nc2ccnn2-c2ncc(C(F)(F)F)cc2Cl)c1`, the AC50 is > 10 µM.
As for `O=S(=O)(Nc1ccc(Cl)cc1)c1cnn(-c2ccc(C(F)(F)F)cn2)c1`, the AC50 was in the range of 1 to 10 µM.
As to `COc1ccc(NS(=O)(=O)c2cnn(-c3ccc(C(F)(F)F)cn3)c2)cc1`, the AC50 was > 10 µM.
With `O=S(=O)(Nc1cc(F)c(F)c(F)c1)c1cccn1-c1ncc(C(F)(F)F)cc1Cl` the figure was 0.1 to 0.5 µM; with `O=S(=O)(Nc1ccc(F)c(Cl)c1)c1cccn1-c1ncccc1Cl`, 0.1 to 0.5 µM.
On to `O=S(=O)(Nc1ccc(F)cc1)c1cccn1-c1ncccc1Cl`, for which the AC50 fell in the range of 1 to 10 µM.
As for `O=S(=O)(Nc1ccc(F)cc1)c1cncn1-c1ncccn1`, the figure is 1 to 10 µM; as for `O=S(=O)(Nc1ccc2c(c1)OCO2)c1cncn1-c1ncccn1`, 0.5 to 1 µM.
As for `O=S(=O)(Nc1ccc(Cl)cc1)c1cncn1-c1ccnc(Cl)n1`, the figure is 1 to 10 µM; as for `COc1cc(NS(=O)(=O)c2cccn2-c2ccnc(Cl)n2)cc(C(F)(F)F)c1`, 0.5 to 1 µM; as for `O=S(=O)(Nc1cc(F)c(F)c(F)c1)c1cccn1-c1ccnc(Cl)n1`, 1 to 10 µM.
`O=S(=O)(Nc1ccc(F)c(Cl)c1)c1cccn1-c1nccc(Cl)n1`: the AC50 was 0.1 to 0.5 µM.
For the compound `O=S(=O)(Nc1ccc2c(c1)OCO2)c1cccn1-c1nccc(Cl)n1`, the AC50 is 0.1 to 0.5 µM.
Take `O=S(=O)(Nc1ccc2c(c1)OCO2)c1cncn1-c1cnccn1`: the AC50 was 0.1 to 0.5 µM.
As for `O=S(=O)(Nc1cc(F)cc(F)c1)c1cccn1-c1ccnc(Cl)n1`, the figure is 0.5 to 1 µM.
With `O=S(=O)(Nc1cccc(C(F)(F)F)c1)c1cccn1-c1ccnc(Cl)n1` the figure was 0.5 to 1 µM; with `O=S(=O)(Nc1ccc2c(c1)OCO2)c1cccn1-c1ccnc(Cl)n1`, < 0.1 µM.
As for `Cc1cc(NS(=O)(=O)c2cccn2-c2ccnc(Cl)n2)ccc1F`, the figure is < 0.1 µM; as for `O=S(=O)(Nc1cc(F)cc(F)c1)c1cncn1-c1nccc(Cl)n1`, 1 to 10 µM; as for `O=S(=O)(Nc1cc(F)cc(F)c1)c1cncn1-c1ccnc(Cl)n1`, > 10 µM.
For the compound `O=S(=O)(Nc1ccc(F)cc1)c1cncn1-c1nccc(Cl)n1`, the AC50 was 1 to 10 µM.
Take `O=S(=O)(Nc1ccc(F)cc1)c1cncn1-c1ccnc(Cl)n1`: the AC50 is 1 to 10 µM.
Regarding `O=S(=O)(Nc1ccc(Cl)cc1)c1cncn1-c1nccc(Cl)n1`, the AC50 was in the range of 1 to 10 µM.
As for `O=S(=O)(Nc1ccc(F)c(Cl)c1)c1cncn1-c1ccnc(Cl)n1`, the figure is 0.1 to 0.5 µM.
With `O=S(=O)(Nc1ccc2c(c1)OCO2)c1cncn1-c1ccnc(Cl)n1` the figure was 0.5 to 1 µM; with `Cc1cccc(NS(=O)(=O)c2cncn2-c2cnccn2)c1`, 0.1 to 0.5 µM; with `Cc1cc(C)cc(NS(=O)(=O)c2cncn2-c2cnccn2)c1`, < 0.1 µM.
With `O=S(=O)(Nc1ccc(F)c(Cl)c1)c1cncn1-c1nccc(Cl)n1` the figure was 1 to 10 µM.
As for `Cc1cc(NS(=O)(=O)c2ccnn2-c2cnccn2)ccc1F`, the AC50 was in the range of 0.1 to 0.5 µM.
As for `O=S(=O)(Nc1cccc(Cl)c1)c1ccnn1-c1ncc(C(F)(F)F)cc1Cl`, the figure is 0.1 to 0.5 µM; as for `Cc1cc(NS(=O)(=O)c2ccnn2-c2ncc(C(F)(F)F)cc2Cl)ccc1F`, < 0.1 µM; as for `O=S(=O)(Nc1cccc(Cl)c1)c1ccnn1-c1nccs1`, 1 to 10 µM.
In the case of `Cc1cc(NS(=O)(=O)c2ccnn2-c2nccs2)ccc1F`, the AC50 is 1 to 10 µM.
In the case of `O=S(=O)(Nc1ccc(F)c(Cl)c1)c1ccnn1-c1nccs1`, the AC50 was in the range of 1 to 10 µM.
With `O=S(=O)(Nc1cccc(Cl)c1)c1ccnn1-c1cccs1` the figure was > 10 µM; with `Cc1cc(NS(=O)(=O)c2ccnn2-c2cccs2)ccc1F`, 1 to 10 µM.
Regarding `O=S(=O)(Nc1ccc(F)c(Cl)c1)c1ccnn1-c1cccs1`, the AC50 was > 10 µM.
As for `O=S(=O)(Nc1ccc(F)c(Cl)c1)c1cncn1-c1nccs1`, the figure is 0.5 to 1 µM.
Regarding `O=S(=O)(Nc1cccc(Cl)c1)c1cncn1-c1cccs1`, the AC50 lay in the range of 1 to 10 µM.
`Cc1cc(NS(=O)(=O)c2cncn2-c2cccs2)ccc1F`: the AC50 fell in the range of 1 to 10 µM.
With `O=S(=O)(Nc1ccc(F)c(Cl)c1)c1cncn1-c1cccs1` the figure was 1 to 10 µM; with `O=S(=O)(Nc1cccc(Cl)c1)c1cncn1-c1nccs1`, 0.5 to 1 µM; with `Cc1cc(NS(=O)(=O)c2cncn2-c2nccs2)ccc1F`, 0.1 to 0.5 µM.
Regarding `O=S(=O)(Nc1cc(F)cc(F)c1)c1cccn1-c1ncccc1Cl` [drawing 63], the AC50 lay in the range of 0.5 to 1 µM.

For the origin of these results see patent US9938259B2, “Therapeutic compositions and related methods of use” (Agios Pharmaceuticals, Inc., priority 2009, dated 2018).
